Measured values as given in the NIST ThermoML archive (doi:10.1016/j.fluid.2010.06.020).
Numbers after ± are expanded uncertainties.

Settings: Liquid, Ebulliometric method (Recirculating still)

CCCC(C)O (stereo not given) [pentan-2-ol]
Settings	vapor or sublimation pressure [kPa]
350.91 K	18.66 ± 0.041
353.74 K	21.33 ± 0.043
356.29 K	24 ± 0.047
358.61 K	26.66 ± 0.051
361.26 K	30 ± 0.055
363.69 K	33.33 ± 0.06
365.92 K	36.66 ± 0.064
368 K	40 ± 0.069
370.31 K	44 ± 0.074
372.45 K	48 ± 0.079
374.46 K	52 ± 0.084
376.35 K	55.99 ± 0.089
378.13 K	59.99 ± 0.095
380.36 K	65.33 ± 0.1
382.45 K	70.66 ± 0.11
384.42 K	75.99 ± 0.11
386.27 K	81.33 ± 0.12
388.47 K	87.99 ± 0.13
390.53 K	94.66 ± 0.13
391.32 K	97.33 ± 0.14

CCC(C)(C)O [2-methylbutan-2-ol]
Settings	vapor or sublimation pressure [kPa]
335.75 K	19.33 ± 0.044
339.03 K	22.66 ± 0.046
341.93 K	26 ± 0.051
344.54 K	29.33 ± 0.056
346.91 K	32.66 ± 0.061
349.1 K	36 ± 0.066
351.52 K	40 ± 0.071
353.75 K	44 ± 0.076
355.83 K	48 ± 0.082
357.78 K	52 ± 0.087
359.9 K	56.66 ± 0.093
361.88 K	61.33 ± 0.099
364.01 K	66.66 ± 0.1
366.01 K	71.99 ± 0.11
367.9 K	77.33 ± 0.12
369.69 K	82.66 ± 0.12
371.8 K	89.33 ± 0.13
373.79 K	95.99 ± 0.14
374.56 K	98.66 ± 0.14

CCC(O)CC [3-pentanol]
Settings	vapor or sublimation pressure [kPa]
342.02 K	14.66 ± 0.035
345.41 K	17.33 ± 0.037
348.4 K	20 ± 0.041
351.07 K	22.66 ± 0.046
354.07 K	26 ± 0.05
356.77 K	29.33 ± 0.054
359.24 K	32.66 ± 0.058
360.62 K	34.66 ± 0.063
362.79 K	38 ± 0.066
364.81 K	41.33 ± 0.071
367.06 K	45.33 ± 0.076
369.16 K	49.33 ± 0.081
371.13 K	53.33 ± 0.086
372.99 K	57.33 ± 0.091
374.75 K	61.33 ± 0.096
376.95 K	66.66 ± 0.1
379.02 K	71.99 ± 0.11
380.97 K	77.33 ± 0.11
382.82 K	82.66 ± 0.12
385 K	89.33 ± 0.13
387.06 K	95.99 ± 0.13
387.65 K	97.99 ± 0.14

CCC(C)CO (stereo not given) [2-methyl-1-butanol]
Settings	vapor or sublimation pressure [kPa]
345.51 K	9.333 ± 0.027
350.44 K	12 ± 0.029
354.51 K	14.66 ± 0.032
358.02 K	17.33 ± 0.037
361.8 K	20.66 ± 0.041
365.12 K	24 ± 0.046
368.62 K	28 ± 0.051
371.74 K	32 ± 0.056
374.56 K	36 ± 0.062
377.13 K	40 ± 0.067
379.5 K	44 ± 0.073
382.05 K	48.66 ± 0.078
384.41 K	53.33 ± 0.084
386.92 K	58.66 ± 0.09
389.23 K	63.99 ± 0.097
391.4 K	69.33 ± 0.1
393.43 K	74.66 ± 0.11
395.35 K	79.99 ± 0.12
397.17 K	85.33 ± 0.12
398.9 K	90.66 ± 0.13
400.96 K	97.33 ± 0.13

CC(C)C(C)O (stereo not given) [3-methyl-2-butanol]
Settings	vapor or sublimation pressure [kPa]
352.84 K	28.66 ± 0.057
355.33 K	32 ± 0.06
357.63 K	35.33 ± 0.064
359.76 K	38.66 ± 0.069
361.74 K	42 ± 0.073
363.6 K	45.33 ± 0.078
365.69 K	49.33 ± 0.083
367.65 K	53.33 ± 0.088
369.5 K	57.33 ± 0.094
371.24 K	61.33 ± 0.099
372.9 K	65.33 ± 0.1
374.99 K	70.66 ± 0.11
376.95 K	75.99 ± 0.12
378.81 K	81.33 ± 0.12
380.58 K	86.66 ± 0.13
382.26 K	91.99 ± 0.14
383.87 K	97.33 ± 0.14
384.45 K	99.33 ± 0.14

CC(C)CCO [3-methylbutan-1-ol]
Settings	vapor or sublimation pressure [kPa]
366.27 K	22.66 ± 0.047
369.95 K	26.66 ± 0.049
373.24 K	30.66 ± 0.055
376.14 K	34.66 ± 0.061
379.65 K	40 ± 0.067
382.78 K	45.33 ± 0.074
385.62 K	50.66 ± 0.081
388.23 K	55.99 ± 0.088
390.64 K	61.33 ± 0.095
392.88 K	66.66 ± 0.1
395.48 K	73.33 ± 0.11
397.9 K	79.99 ± 0.12
400.18 K	86.66 ± 0.12
402.32 K	93.33 ± 0.13
403.77 K	97.99 ± 0.13
